No end group written: not given here.

These results are taken from US5243027A, “Method of preparing angiotensin converting enzyme inhibitors” (Unitika, Ltd., priority 1990, dated 1993).

The target of this experiment is T1, angiotensin converting enzyme (Oryctolagus cuniculus, UniProt P12822).
T1 construct: The supernatant was dialyzed against the same buffer to remove low-molecular weight substances resulting in an angiotensin converting enzyme solution; tissue Sigma Co; host or cells: rabbit lung (acetone-dried preparation)
T1 sequence (P12822 34-1310): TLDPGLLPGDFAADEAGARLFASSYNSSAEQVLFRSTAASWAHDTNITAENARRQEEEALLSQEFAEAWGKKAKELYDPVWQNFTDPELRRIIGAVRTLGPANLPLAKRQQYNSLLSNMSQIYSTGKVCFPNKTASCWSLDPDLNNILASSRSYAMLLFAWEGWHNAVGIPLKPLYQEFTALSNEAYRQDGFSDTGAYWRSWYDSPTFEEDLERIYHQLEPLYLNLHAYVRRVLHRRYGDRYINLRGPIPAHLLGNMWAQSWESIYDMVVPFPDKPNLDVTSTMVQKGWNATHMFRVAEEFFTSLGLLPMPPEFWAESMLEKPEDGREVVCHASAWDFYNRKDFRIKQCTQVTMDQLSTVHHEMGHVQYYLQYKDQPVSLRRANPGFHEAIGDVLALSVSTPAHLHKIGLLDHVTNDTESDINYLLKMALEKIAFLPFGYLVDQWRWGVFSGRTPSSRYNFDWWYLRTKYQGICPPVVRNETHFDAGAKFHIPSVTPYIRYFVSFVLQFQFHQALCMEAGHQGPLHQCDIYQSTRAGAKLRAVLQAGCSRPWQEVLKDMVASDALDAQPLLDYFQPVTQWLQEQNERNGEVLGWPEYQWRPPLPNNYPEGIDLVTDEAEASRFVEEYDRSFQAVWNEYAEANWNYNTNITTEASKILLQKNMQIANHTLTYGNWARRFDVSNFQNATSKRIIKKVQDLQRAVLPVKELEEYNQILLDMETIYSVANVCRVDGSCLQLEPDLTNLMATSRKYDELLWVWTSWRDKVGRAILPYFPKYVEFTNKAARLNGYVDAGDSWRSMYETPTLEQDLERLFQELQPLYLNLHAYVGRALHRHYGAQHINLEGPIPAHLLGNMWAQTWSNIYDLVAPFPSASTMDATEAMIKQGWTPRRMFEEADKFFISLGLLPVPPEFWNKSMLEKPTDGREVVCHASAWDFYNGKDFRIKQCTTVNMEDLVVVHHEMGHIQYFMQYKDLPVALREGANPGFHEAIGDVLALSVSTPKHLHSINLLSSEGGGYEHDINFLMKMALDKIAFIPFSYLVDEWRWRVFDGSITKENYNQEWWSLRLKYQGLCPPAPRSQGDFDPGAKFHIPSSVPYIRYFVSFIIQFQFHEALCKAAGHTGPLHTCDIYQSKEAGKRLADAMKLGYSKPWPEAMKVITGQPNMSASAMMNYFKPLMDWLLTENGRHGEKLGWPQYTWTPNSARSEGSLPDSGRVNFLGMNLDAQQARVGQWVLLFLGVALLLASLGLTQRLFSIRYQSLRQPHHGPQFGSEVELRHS
Description: Determination of angiotensin converting enzyme inhibitory activity (method of Cushmann et al., hippuryl-L-histidine-L-leucine substrate). It counts as biochemical. The settings on record: rabbit lung enzyme, 37° C., 30 minutes, pH 8.3; peptides isolated from Bacillus stearothermophilus hydrolysate; read-out: IC50 (concentration of the sample showing 50% inhibition) (converted). Here is the method:
Angiotensin converting enzyme inhibitory activity during isolation and purification was determined using the method of Cushmann et al., Biochem. Pharacol., Vol. 20, pp. 1637-1648 (1971).
A commercially available acetone-dried preparation of rabbit lungs (product of Sigma Co.) was dissolved in a 50 mM potassium phosphate buffer solution (pH=8.3) at 4° C. and the solution was centrifuged at 37,000×g for 30 minutes. The supernatant was dialyzed against the same buffer to remove low-molecular weight substances resulting in an angiotensin converting enzyme solution.
Hippuryl-L-histidine-L-leucine (product of Peptide Kenkyusho) was added to a 0.1M potassium phosphate buffer solution (pH=8.3) containing 0.3M NaCl to prepare a 2.5 mM enzyme substrate solution. The above-prepared angiotensin converting enzyme, water and a test sample were added to the substrate solution in a final volume of 0.25 ml and the system was allowed to react at 37° C. for 30 minutes. Then, 0.25 ml of 1N HCl was added thereto to stop the reaction and 1.5 ml of ethyl acetate was added to extract released hippuric acid. A 1 ml aliquot of the ethyl acetate extract was evaporated to dryness. To the residue was added 1 ml of distilled water and the absorbance at 228 nm was measured to determine the amount of hippuric acid.
Percent inhibition was calculated from the above-measured absorbance (A) and an absorbance of a blank (B) according to the following equation: [formula] The concentration of the sample showing 50% inhibition was taken as IC50.
For “AYIASKGL [(c), Ala-Tyr-Ile-Ala-Ser-Lys-Gly-Leu]”, the IC50 is 35 µM.

In the case of “GKEIIVKAER [(a), Gly-Lys-Glu-Ile-Ile-Val-Lys-Ala-Glu-Arg]”, the IC50 is 65.7 µM.

Take “GKMVKVVSWY [(b), Gly-Lys-Met-Val-Lys-Val-Val-Ser-Trp-Tyr]”: the IC50 was 6.69 µM.
